The values below are quoted from earlier work in patent publication US7045126B2, “Histone deacetylase-8 proteins, nucleic acids, and methods for use” (Applera Corporation, priority 1999, dated 2006).

One data set deals with tumor. The note with it: tumor bearing nude mice.
Data set [1] concerns acute promyelocytic leukemia (APL). The note with it: incl. retinoic acid resistant forms.
A further data set concerns cell cycle. The settings on record: variety of systems.

As for `Nc1ccccc1NC(=O)c1ccc(CNC(=O)OCc2cccnc2)cc1` [MS-27275], the histone hyperacetylation entry with histones is on record as “induces histone hyperacetylation”. Besides, the “inhibition of tumor growth” value in the data set with tumor is “demonstrates efficacy in inhibiting tumor growth”.
As for `CCCC(=O)[O-].[Na+]` [sodium butyrate], the “therapeutic use to target transcription in APL” value in data set [1] is “successful even in retinoic acid resistant forms of the disease”.
For `CC(/C=C/C(=O)NO)=C\[C@@H](C)C(=O)c1ccc(N(C)C)cc1` [trichostatin A], in the data set with cell cycle, the “cell cycle arrest and/or differentiation” value is “induce cell cycle arrest and/or differentiation”.
